Measurements: US12655125B2 (SIRONAX LTD., priority 2020, dated 2026)
pEC50: −log10 of the molar value.

test system: HT-29 cells; assay: HT29 Cells 0FBS Assay In Vitro (TNF-α/SMAC mimetic/zVAD-FMK induced necroptosis, CellTiter-Glo cell viability); format: cell-based; settings: Homo sapiens; HT-29 cells, FBS free medium, TNF-α (10 ng/ml), SMAC mimetic (6 uM), zVAD-FMK (10 μM), 20 hours; geometric mean EC50; read-out: Cell activity (EC50) of Compounds 1-116
Summary of the method: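 Viability was measured by ATP luminescence (CellTiter-Glo) after 20 h at 37° C of compound exposure in 10-point, 1:3 dilutions. Necroptosis in FBS-free HT-29 cultures was driven by a TNF-α (10 ng/ml), SMAC mimetic (6 μM) and zVAD-FMK (10 μM) cocktail. EC50 values are geometric means from duplicate curves.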

Compound | pEC50
Cc1ncsc1-c1ccc(F)c(OC2CN(C(=O)N3N=CC[C@H]3c3cc(F)cc(F)c3)C2)n1 [compound 10, (S)-(5-(3,5-difluorophenyl)-4,5-dihydro-1H-pyrazol-1-yl)(3-((3-fluoro-6-(4-methylthiazol-5-yl)pyridin-2-yl)oxy)azetidin-1-yl)methanone] | 7.00 to 10.00
Cc1[nH]ncc1-c1ncc(F)c(OC2CN(C(=O)N3N=CC[C@H]3c3cc(F)cc(F)c3)C2)n1 [compound 90, (S)-(5-(3,5-difluorophenyl)-4,5-dihydro-1H-pyrazol-1-yl)(3-((5-fluoro-2-(5-methyl-1H-pyrazol-4-yl)pyrimidin-4-yl)oxy)azetidin-1-yl)methanone] | 7.00 to 10.00
CCn1nccc1-c1cc(OC2CN(C(=O)N3N=CC[C@H]3c3cc(F)cc(F)c3)C2)c(F)cn1 [compound 4, (S)-(5-(3,5-difluorophenyl)-4,5-dihydro-1H-pyrazol-1-yl)(3-((2-(1-ethyl-1H-pyrazol-5-yl)-5-fluoropyridin-4-yl)oxy)azetidin-1-yl)methanone] | 7.00 to 10.00
Cn1ncc(C(=O)N2CCCC2)c1-c1cc(OC2CN(C(=O)N3N=CC[C@H]3c3cc(F)cc(F)c3)C2)c(F)cn1 [compound 75, (S)-(5-(3,5-difluorophenyl)-4,5-dihydro-1H-pyrazol-1-yl)(3-((5-fluoro-2-(1-methyl-4-(pyrrolidine-1-carbonyl)-1H-pyrazol-5-yl)pyridin-4-yl)oxy)azetidin-1-yl)methanone] | 5.00 to 6.00
Cc1ncc(-c2cc(OC3CN(C(=O)N4N=CC[C@H]4c4cc(F)cc(F)c4)C3)c(F)cn2)s1 [compound 26, (S)-(5-(3,5-difluorophenyl)-4,5-dihydro-1H-pyrazol-1-yl)(3-((5-fluoro-2-(2-methylthiazol-5-yl)pyridin-4-yl)oxy)azetidin-1-yl)methanone] | 7.00 to 10.00
Cc1c(N)nn(C)c1-c1cc(OC2CN(C(=O)N3N=CC[C@H]3c3cc(F)cc(F)c3)C2)c(F)cn1 [compound 101, (S)-(3-((2-(3-amino-1,4-dimethyl-11H-pyrazol-5-yl)-5-fluoropyridin-4-yl)oxy)azetidin-1-yl)(5-(3,5-difluorophenyl)-4,5-dihydro-1H-pyrazol-1-yl)methanone] | 7.00 to 10.00
Cn1ncnc1-c1ccc(F)c(OC2CN(C(=O)N3N=CC[C@H]3c3cc(F)cc(F)c3)C2)n1 [compound 28, (S)-(5-(3,5-difluorophenyl)-4,5-dihydro-1H-pyrazol-1-yl)(3-((3-fluoro-6-(1-methyl-1H-1,2,4-triazol-5-yl)pyridin-2-yl)oxy)azetidin-1-yl)methanone] | 7.00 to 10.00
Cc1cccn1-c1ncc(F)c(OC2CN(C(=O)N3N=CC[C@H]3c3cc(F)cc(F)c3)C2)n1 [compound 102, (S)-(5-(3,5-difluorophenyl)-4,5-dihydro-1H-pyrazol-1-yl)(3-((5-fluoro-2-(2-methyl-1H-pyrrol-1-yl)pyrimidin-4-yl)oxy)azetidin-1-yl)methanone] | 7.00 to 10.00
CNc1cnn(C)c1-c1cc(OC2CN(C(=O)N3N=CC[C@H]3c3cc(F)cc(F)c3)C2)c(F)cn1 [compound 54, (S)-(5-(3,5-difluorophenyl)-4,5-dihydro-1H-pyrazol-1-yl)(3-((5-fluoro-2-(1-methyl-4-(methylamino)-1H-pyrazol-5-yl)pyridin-4-yl)oxy)azetidin-1-yl)methanone] | 7.00 to 10.00
O=C(N1CC(Oc2nc(-c3ccn[nH]3)ncc2F)C1)N1N=CC[C@H]1c1cc(F)cc(F)c1 [compound 87, (S)-(5-(3,5-difluorophenyl)-4,5-dihydro-1H-pyrazol-1-yl)(3-((5-fluoro-2-(1H-pyrazol-5-yl)pyrimidin-4-yl)oxy)azetidin-1-yl)methanone] | 7.00 to 10.00

same assay, conditions: Homo sapiens; HT-29 cells, FBS free medium, TNF-α (10 ng/ml), SMAC mimetic (6 uM), zVAD-FMK (10 μM), 20 hours; geometric mean EC50; read-out: Cell activity (EC50) of Compounds 117-281

Compound | pEC50
Cc1nc(C#N)c(C)n1-c1cc(OC2CN(C(=O)N3N=CC[C@H]3c3cc(F)cc(F)c3)C2)c(F)cn1 [compound 199, (S)-1-(4-((1-(5-(3,5-difluorophenyl)-4,5-dihydro-1H-pyrazole-1-carbonyl)azetidin-3-yl)oxy)-5-fluoropyridin-2-yl)-2,5-dimethyl-1H-imidazole-4-carbonitrile] | 7.00 to 10.00
Cc1nn(-c2cc(OC3CN(C(=O)N4N=CC[C@H]4c4cc(F)cc(F)c4)C3)c(F)cn2)c(C)c1S(=O)(=O)NCCO [compound 244, (S)-1-(4-((1-(5-(3,5-difluorophenyl)-4,5-dihydro-1H-pyrazole-1-carbonyl)azetidin-3-yl)oxy)-5-fluoropyridin-2-yl)-N-(2-hydroxyethyl)-3,5-dimethyl-1H-pyrazole-4-sulfonamide] | 7.00 to 10.00
Cc1c(-c2cc(OC3CN(C(=O)N4N=CC[C@H]4c4cc(F)cc(F)c4)C3)c(F)cn2)c(C)n(C)c1N [compound 206, (S)-(3-((2-(5-amino-1,2,4-trimethyl-1H-pyrrol-3-yl)-5-fluoropyridin-4-yl)oxy)azetidin-1-yl)(5-(3,5-difluorophenyl)-4,5-dihydro-1H-pyrazol-1-yl)methanone] | 7.00 to 10.00
Cc1nn(-c2cc(OC3CN(C(=O)N4N=CC[C@H]4c4cc(F)cc(F)c4)C3)c(F)cn2)c(C)c1CO [compound 148, (S)-(5-(3,5-difluorophenyl)-4,5-dihydro-1H-pyrazol-1-yl)(3-((5-fluoro-2-(4-(hydroxymethyl)-3,5-dimethyl-1H-pyrazol-1-yl)pyridin-4-yl)oxy)azetidin-1-yl)methanone] | 7.00 to 10.00
Cc1c(C(N)=O)nn(C)c1-c1cc(OC2CN(C(=O)N3N=CC[C@H]3c3cc(F)cc(F)c3)C2)c(F)cn1 [compound 165, (S)-5-(4-((1-(5-(3,5-difluorophenyl)-4,5-dihydro-1H-pyrazole-1-carbonyl)azetidin-3-yl)oxy)-5-fluoropyridin-2-yl)-1,4-dimethyl-1H-pyrazole-3-carboxamide] | 7.00 to 10.00
Cc1c(-c2cc(OC3CN(C(=O)N4N=CC[C@H]4c4cc(F)cc(F)c4)C3)c(F)cn2)nn(C)c1C(=O)NC1CC(O)C1 (stereo partly drawn) [compound 263, (S)-3-(4-((1-(5-(3,5-difluorophenyl)-4,5-dihydro-1H-pyrazole-1-carbonyl)azetidin-3-yl)oxy)-5-fluoropyridin-2-yl)-N-(3-hydroxycyclobutyl)-1,4-dimethyl-1H-pyrazole-5-carboxamide] | 7.00 to 10.00
Cc1nn(-c2cc(OC3CN(C(=O)N4N=CC[C@H]4c4cc(F)cc(F)c4)C3)c(F)cn2)c(C)c1C(=O)NC#N [compound 253, (S)—N-cyano-1-(4-((1-(5-(3,5-difluorophenyl)-4,5-dihydro-1H-pyrazole-1-carbonyl)azetidin-3-yl)oxy)-5-fluoropyridin-2-yl)-3,5-dimethyl-1H-pyrazole-4-carboxamide] | 7.00 to 10.00
Cc1cc(C)n(-c2cc(OC3CN(C(=O)N4N=CC[C@H]4c4cc(F)cc(F)c4)C3)c(F)cn2)n1 [compound 221, (S)-(5-(3,5-difluorophenyl)-4,5-dihydro-1H-pyrazol-1-yl)(3-((2-(3,5-dimethyl-1H-pyrazol-1-yl)-5-fluoropyridin-4-yl)oxy)azetidin-1-yl)methanone] | 7.00 to 10.00
Cc1c(C(N)=O)nn(C)c1-c1ccc(F)c(OC2CN(C(=O)N3N=CC[C@H]3c3cc(F)cc(F)c3)C2)n1 [compound 196, (S)-5-(6-((1-(5-(3,5-difluorophenyl)-4,5-dihydro-1H-pyrazole-1-carbonyl)azetidin-3-yl)oxy)-5-fluoropyridin-2-yl)-1,4-dimethyl-1H-pyrazole-3-carboxamide] | 7.00 to 10.00
Cc1nn(-c2cc(OC3CN(C(=O)N4N=CC[C@H]4c4cc(F)cc(F)c4)C3)c(F)cn2)c(C)c1CCO [compound 259, (S)-(5-(3,5-difluorophenyl)-4,5-dihydro-1H-pyrazol-1-yl)(3-((5-fluoro-2-(4-(2-hydroxyethyl)-3,5-dimethyl-1H-pyrazol-1-yl)pyridin-4-yl)oxy)azetidin-1-yl)methanone] | 7.00 to 10.00
Cc1nn(C)c(-c2cc(OC3CN(C(=O)N4N=CC[C@H]4c4cc(F)cc(F)c4)C3)c(F)cn2)c1N [compound 209, (S)-(3-((2-(4-amino-1,3-dimethyl-1H-pyrazol-5-yl)-5-fluoropyridin-4-yl)oxy)azetidin-1-yl)(5-(3,5-difluorophenyl)-4,5-dihydro-1H-pyrazol-1-yl)methanone] | 7.00 to 10.00
CC(=O)N(C(C)=O)c1cc(-c2cc(OC3CN(C(=O)N4N=CC[C@H]4c4cc(F)cc(F)c4)C3)c(F)cn2)n(C)n1 [compound 136, (S)—N-acetyl-N-(5-(4-((1-(5-(3,5-difluorophenyl)-4,5-dihydro-1H-pyrazole-1-carbonyl)azetidin-3-yl)oxy)-5-fluoropyridin-2-yl)-1-methyl-1H-pyrazol-3-yl)acetamide] | 7.00 to 10.00
Cc1nn(-c2cc(OC3CN(C(=O)N4N=CC[C@H]4c4cc(F)cc(F)c4)C3)c(F)cn2)c(C)c1CN(C)C [compound 269, (S)-(5-(3,5-difluorophenyl)-4,5-dihydro-1H-pyrazol-1-yl)(3-((2-(4-((dimethylamino)methyl)-3,5-dimethyl-1H-pyrazol-1-yl)-5-fluoropyridin-4-yl)oxy)azetidin-1-yl)methanone] | 7.00 to 10.00
Cc1nn(C)c(C)c1-c1cc(OC2CN(C(=O)N3N=CC[C@H]3c3cc(F)cc(F)c3)C2)c(F)cn1 [compound 159, (S)-(5-(3,5-difluorophenyl)-4,5-dihydro-1H-pyrazol-1-yl)(3-((5-fluoro-2-(1,3,5-trimethyl-1H-pyrazol-4-yl)pyridin-4-yl)oxy)azetidin-1-yl)methanone] | 7.00 to 10.00
Cc1nn(CC2CC2)c(C)c1-c1cc(OC2CN(C(=O)N3N=CC[C@H]3c3cc(F)cc(F)c3)C2)c(F)cn1 [compound 132, (S)-(3-((2-(1-(cyclopropylmethyl)-3,5-dimethyl-1H-pyrazol-4-yl)-5-fluoropyridin-4-yl)oxy)azetidin-1-yl)(5-(3,5-difluorophenyl)-4,5-dihydro-1H-pyrazol-1-yl)methanone] | 7.00 to 10.00
